In patent publication US20140135319A1, “6-SUBSTITUTED IMIDAZOPYRAZINES FOR USE AS MPS-1 AND TKK INHIBITORS IN THE TREATMENT OF HYPERPROLIFERATIVE DISORDERS” (BAYER INTELLECTUAL PROPERTY GMBH, priority 2010, published 2014) one finds IC50 data, which are given here for 24 molecules.

The IC50 is the concentration that inhibits the measured activity by half.

In the assay the target is T1, human kinase Mps-1 (Homo sapiens, UniProt P33981).
T1 construct: N-terminally GST-tagged human full length recombinant Mps-1 kinase; GST (N); purchased Invitrogen, Karslruhe, Germany PV4071
T1 sequence (P33981 1-857): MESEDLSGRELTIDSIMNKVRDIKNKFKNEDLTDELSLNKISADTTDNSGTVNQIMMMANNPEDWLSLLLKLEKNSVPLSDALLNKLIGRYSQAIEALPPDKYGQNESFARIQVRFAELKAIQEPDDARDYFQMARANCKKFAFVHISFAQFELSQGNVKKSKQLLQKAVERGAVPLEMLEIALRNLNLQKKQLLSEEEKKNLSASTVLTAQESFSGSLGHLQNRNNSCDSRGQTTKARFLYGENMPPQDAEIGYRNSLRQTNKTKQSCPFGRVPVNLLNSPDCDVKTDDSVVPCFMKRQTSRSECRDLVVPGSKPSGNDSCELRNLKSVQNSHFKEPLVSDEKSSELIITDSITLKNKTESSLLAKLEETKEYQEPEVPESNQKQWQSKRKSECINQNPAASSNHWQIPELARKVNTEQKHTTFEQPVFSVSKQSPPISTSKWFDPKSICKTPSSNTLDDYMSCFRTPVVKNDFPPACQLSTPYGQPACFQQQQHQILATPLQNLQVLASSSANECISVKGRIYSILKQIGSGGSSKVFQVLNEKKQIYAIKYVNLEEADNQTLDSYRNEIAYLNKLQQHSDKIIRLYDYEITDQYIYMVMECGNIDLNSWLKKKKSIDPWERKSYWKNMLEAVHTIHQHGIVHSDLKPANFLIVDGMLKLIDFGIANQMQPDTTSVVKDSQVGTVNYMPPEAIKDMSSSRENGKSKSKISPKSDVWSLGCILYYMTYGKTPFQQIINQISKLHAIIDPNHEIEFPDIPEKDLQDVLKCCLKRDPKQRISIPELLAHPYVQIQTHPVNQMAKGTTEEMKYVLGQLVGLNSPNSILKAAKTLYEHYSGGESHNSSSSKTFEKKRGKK
Nature of the assay: Mps-1 kinase assay (TR-FRET). It is filed as biochemical. To be noted: GST-tagged human full length recombinant Mps-1; 10 μM ATP; 1 μM peptide substrate; 60 min at 22° C. The procedure, abridged:
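TR-FRET read-out: after 1 h binding at 22° C, Eu-labelled anti-phospho-Ser/Thr antibody transfers to SA-XLent on the phosphorylated biotinylated peptide. The enzyme is GST-tagged full-length human Mps-1, typically about 1 nM final, in the linear range.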
(In general: In TR-FRET formats the signal depends on donor and acceptor labels being close together.)
For `Cn1nccc1-c1cn2c(-c3ccc(C(=O)NC4CC4)cc3)cnc2c(NCC(C)(C)O)n1` [Example 1-97, N-cyclopropyl-4-{8-[(2-hydroxy-2-methylpropyl)amino]-6-(1-methyl-1H-pyrazol-5-yl)imidazo[1,2-a]pyrazin-3-yl}benzamide], the IC50 is 17.8 nM. On to `Cn1nccc1-c1cn2c(-c3ccc(C(=O)NC4CC4)c(Cl)c3)cnc2c(NCCCN)n1` [Example 1-98, 4-{8-[(3-Aminopropyl)amino]-6-(1-methyl-1H-pyrazol-5-yl)imidazo[1,2-a]pyrazin-3-yl}-2-chloro-N-cyclopropylbenzamide], for which the IC50 came out at 1340 nM. On to `Cc1ccc(-c2cn3c(-c4ccc(C(=O)NC5CC5)cc4)cnc3c(NCC(C)(C)O)n2)cc1CC(N)=O` [Example 1-99, 4-{6-[3-(2-Amino-2-oxo-ethyl)-4-methylphenyl]-8-[(2-hydroxy-2-methylpropyl)amino]imidazo[1,2-a]pyrazin-3-yl}-N-cyclopropylbenzamide], for which the IC50 came to 16.1 nM. Next, `COc1cc(C(=O)NC2CC2)ccc1-c1cnc2c(NCCCN)nc(-c3ccncc3)cn12` [Example 1-100, 4-{8-[(3-Aminopropyl)amino]-6-(pyridin-4-yl)imidazo [1,2-a]pyrazin-3-yl}-N-cyclopropyl-3-methoxy-benzamide]: 309 nM; `NCCCNc1nc(-c2ccncc2)cn2c(-c3ccc(C(=O)NC4CC4)c(Cl)c3)cnc12` [Example 1-101, 4-{8-[(3-Aminopropyl)amino]-6-(pyridin-4-yl)imidazo [1,2-a]pyrazin-3-yl}-2-chloro-N-cyclopropyl-benzamide]: 361 nM; `COc1cc(C(=O)NC2CC2)ccc1-c1cnc2c(NCCCN)nc(-c3ccnn3C)cn12` [Example 1-102, 4-{8-[(3-Aminopropyl)amino]-6-(1-methyl-1H-pyrazol-5-yl)imidazo[1,2-a]pyrazin-3-yl}-N-cyclopropyl-3-methoxybenzamide]: 531 nM.

With `Cc1cc(-c2cnc3c(NCCC(F)(F)F)nc(-c4ccncc4)cn23)ccc1C(=O)NC1CC1` [Example 1-103, N-cyclopropyl-2-methyl-4-{6-(pyridin-4-yl)-8-[(3,3,3-trifluoropropyl)amino]imidazo[1,2-a]pyrazin-3-yl}benzamide], the IC50 came to 1.3 nM.

For `CC(C)CNc1nc(-c2ccccc2)cn2c(-c3ccc(C(=O)NC4CC4(C)C)cc3)cnc12` (stereo not drawn) [Example 2-1, N-(2,2-dimethylcyclopropyl)-4-{8-[(2-methylpropyl)amino]-6-phenylimidazo[1,2-a]pyrazin-3-yl}benzamide], the IC50 amounted to 162 nM. Next, `CC(C)CNc1nc(-c2ccccc2)cn2c(-c3ccc(C(=O)NC4CC4F)cc3)cnc12` (stereo not drawn) [Example 2-2, N-(2-fluorocyclopropyl)-4-{8-[(2-methylpropyl)amino]-6-phenylimidazo [1,2-a]pyrazin-3-yl} benzamide]: 10.1 nM; `CC(C)CNc1nc(-c2ccccc2)cn2c(-c3ccc(C(=O)NC4(C)CC4)cc3)cnc12` [Example 2-3, N-(1-methylcyclopropyl)-4-{8-[(2-methylpropyl)amino]-6-phenylimidazo [1,2-a]pyrazin-3-yl}benzamide]: 208 nM; `O=C(NC1CC1)c1ccc(-c2cnc3c(NCc4cccs4)nc(-c4ccncc4)cn23)cc1` [Example 3-1, N-cyclopropyl-4-{6-(pyridin-4-yl)-8-[(thiophen-2-ylmethyl)amino]imidazo[1,2-a]pyrazin-3-yl}benzamide]: 4.1 nM. Consider `C#CCNc1nc(-c2ccccc2)cn2c(-c3ccc(C(=O)NC4CC4)cc3)cnc12` [Example 3-2, N-cyclopropyl-4-[6-phenyl-8-(prop-2-yn-1-ylamino)imidazo[1,2-a]pyrazin-3-yl]benzamide], for which the IC50 amounted to 7.4 nM. With `CCCNc1nc(-c2ccncc2)cn2c(-c3ccc(C(=O)NC4CC4)cc3)cnc12` [Example 3-3, N-cyclopropyl-4-[8-(propylamino)-6-(pyridin-4-yl)imidazo[1,2-a]pyrazin-3-yl]benzamide], the IC50 is 2.1 nM. Next, `O=C(NC1CC1)c1ccc(-c2cnc3c(NCCO)nc(-c4ccncc4)cn23)cc1` [Example 3-4, N-cyclopropyl-4-{8-[(2-hydroxyethyl)amino]-6-(pyridin-4-yl)imidazo [1,2-a]pyrazin-3-yl} benzamide]: 11.3 nM; `O=C(NC1CC1)c1ccc(-c2cnc3c(NCCCN4CCOCC4)nc(-c4ccncc4)cn23)cc1` [Example 3-5, N-cyclopropyl-4-[8-{[3-(morpholin-4-yl)propyl]amino}-6-(pyridin-4-yl)imidazo[1,2-a]pyrazin-3-yl]benzamide]: 214 nM; `CC(C)CCNc1nc(-c2ccncc2)cn2c(-c3ccc(C(=O)NC4CC4)cc3)cnc12` [Example 3-6, N-cyclopropyl-4-{8-[(3-methylbutyl)amino]-6-(pyridin-4-yl)imidazo [1,2-a]pyrazin-3-yl} benzamide]: 2.4 nM. Turning to `O=C(NC1CC1)c1ccc(-c2cnc3c(NCC4CCCO4)nc(-c4ccncc4)cn23)cc1` (stereo not drawn) [Example 3-7, N-cyclopropyl-4-{6-(pyridin-4-yl)-8-[(tetrahydrofuran-2-ylmethyl)amino]imidazo[1,2-a]pyrazin-3-yl}benzamide], the IC50 is 2.4 nM.

As for `O=C(NC1CC1)c1ccc(-c2cnc3c(NCCCN4CCCC4=O)nc(-c4ccncc4)cn23)cc1` [Example 3-8, N-cyclopropyl-4-[8-{[3-(2-oxopyrrolidin-1-yl)propyl]amino}-6-(pyridin-4-yl)imidazo[1,2-a]pyrazin-3-yl]benzamide], the IC50 is 17.6 nM. Next, `O=C(NC1CC1)c1ccc(-c2cnc3c(NCc4ccccc4F)nc(-c4ccncc4)cn23)cc1` [Example 3-9, N-cyclopropyl-4-{8-[(2-fluorobenzyl)amino]-6-(pyrdin-4-yl)imidazo [1,2-a]pyrazin-3-yl} benzamide]: 1 nM; `O=C(NC1CC1)c1ccc(-c2cnc3c(NCc4ccc(F)cc4)nc(-c4ccncc4)cn23)cc1` [Example 3-10, N-cyclopropyl-4-{8-[(4-fluorobenzyl)amino]-6-(pyrdin-4-yl)imidazo [1,2-a]pyrazin-3-yl} benzamide]: 1.9 nM; `O=C(NC1CC1)c1ccc(-c2cnc3c(NCCCCO)nc(-c4ccncc4)cn23)cc1` [Example 3-11, N-cyclopropyl-4-{8-[(4-hydroxybutyl)amino]-6-(pyridin-4-yl)imidazo [1,2-a]pyrazin-3-yl} benzamide]: 4.1 nM.

As for `O=C(NC1CC1)c1ccc(-c2cnc3c(NCc4ccccc4)nc(-c4ccncc4)cn23)cc1` [Example 3-12, 4-[8-(benzylamino)-6-(pyridin-4-yl)imidazo [1,2-a]pyrazin-3-yl]-N-cyclopropylbenzamide], the IC50 worked out at 2.3 nM. `CCCCNc1nc(-c2ccncc2)cn2c(-c3ccc(C(=O)NC4CC4)cc3)cnc12` [Example 3-13, 4-[8-(butylamino)-6-(pyridin-4-yl)imidazo [1,2-a]pyrazin-3-yl]-N-cyclopropylbenzamide]: the IC50 came out at 1.7 nM. `CC(=O)NCCNc1nc(-c2ccncc2)cn2c(-c3ccc(C(=O)NC4CC4)cc3)cnc12` [Example 3-14, 4-[8-{[2-(acetylamino)ethyl]amino}-6-(pyridin-4-yl)imidazo[1,2-a]pyrazin-3-yl]-N-cyclo-propylbenzamide]: the IC50 was 30.7 nM.
